# From publication PMC5931096, “A Phase I study of the novel immunomodulatory agent PG545 (pixatimod) in subjects with advanced solid tumours” (British Journal of Cancer, 2018)
# Entries after “also recorded” stand apart in the source; their conditions may differ. Where two headings read alike, the source gives them in different places.
# Legend:
# [1] = tested on: advanced solid malignancies; experiment: Clinical activity by RECIST 1.1; type: in vivo, human
# Description: All patients were assessed for safety, those who received at least one dose of PG545 were evaluated for efficacy. Safety assessment included the incidence of all adverse events (AEs), irrespective of relationship to study drug, according to the National Cancer Institute Common Terminology Criteria for Adverse Events, version 4.0, and the incidence of patients experiencing dose modifications and/or premature discontinuation of study drug. Dose-limiting toxicities (DLTs) used to determine the MTD were defined as occurring during Cycle 1 of treatment only and related to PG545 according to investigator assessment. If no DLT occurred in the first three subjects, the next three-subject cohort was enrolled at the next highest available dose level. If a single DLT occurred, an additional three subjects was enrolled at the same dose level. Dose escalation continued until two subjects of the cohort experienced a DLT; this was defined as the toxic dose level. The dose-escalation phase was completed and MTD determined by reducing the dose to the next lowest dose compared to the toxic dose and expanding this cohort to at least 6 subjects.
# Subjects with measurable disease were assessed by computed tomography at baseline and every 8 weeks according to Response Evaluation Criteria in Solid Tumours (RECIST), version 1.1 criteria.
# [2] = Plasma pharmacokinetics (LC-MS/MS, population PK model and NCA); type: in vivo, human; conditions: for AUC / Cmax / AUC(0-t) / half-life: human, plasma, intravenous
# Description: Plasma samples were obtained for the first (day 1) and fourth (day 22) doses, as follows: (1) pre-dosing (no more than 4 h prior to infusion start); (2) mid-point of infusion; prior to completion of infusion; 30 min post-infusion; then 2, 4, 6, 24, 48, 72, 144 and 168 h post-infusion. Samples were analysed for PG545 concentration using a validated liquid chromatography with tandem mass spectrometry (LC-MS/MS) assay.[13] A population PK model was developed using NONMEM® and individual non-compartmental analysis-type exposure parameter estimation was also performed.
# [3] = tested on: tumour-associated macrophages (TAM); design: method as in PMID 24970482, PMID 23696215; conditions: preclinical cancer models; cited from earlier work
# pDC and NK cells = experiment: Flow cytometry of PBMC for DC and NK cell activation; type: in vivo, human
# Description: (§1) Plasma and peripheral blood mononuclear cell (PBMC) samples were obtained at various points for PD assessment with the exception of the 25 mg cohort, where PBMC were not collected. Plasma samples were analysed for the concentration of various markers, including cytokines, chemokines and heparanase using commercial ELISA (LifeSpan Biosciences, Seattle, WA), and array kits (Quansys, Logan, UT).
# Cryopreserved PBMC samples were analysed by flow cytometry for changes in abundance and activation status of DC and NK cells at day 3 post-treatment compared with pre-dose samples (day 1). Given the stimulatory nature of PG545 via TLR9 reported in mice,[18] efforts were primarily focussed on the assessments of pDC and NK cells though certain subjects with available sample underwent additional analyses. To assess pDC, cells were stained with antibodies to HLADR-peCy7, CD303-FITC, IFNα-647 (BD Biosciences, Franklin Lakes, NJ). To assess NK cells, cells were stained with antibodies to CD335-PE, CD3-APC, IFNγ-FITC (BD Biosciences). All intracellular cytokine staining samples were stimulated by 100 ng/mL PMA, 100 ng/mL ionomycin and 5 μg/mL Brefeldin A for 4 h at 37 °C. Samples were acquired using FACSCanto flow cytometers (BD Biosciences).
# [4] = tested on: plasma IFNγ, TNFα, IP-10 and MCP-1; experiment: Plasma cytokine/chemokine biomarkers (ELISA, array kits); type: in vivo, human
# Description: as §1
# [5] = 100 mg, dose number 1, NCA mean
# [6] = 100 mg, dose number 4, NCA mean
# [7] = 150 mg, dose number 1, NCA mean
# [8] = 150 mg, dose number 4, NCA mean
smiles,measurement,setting,value
CC(C)CCC[C@@H](C)[C@H]1CC[C@H]2[C@@H]3CC[C@H]4C[C@@H](O[C@@H]5O[C@H](COS(=O)(=O)O)[C@@H](O[C@H]6O[C@H](COS(=O)(=O)O)[C@@H](O[C@H]7O[C@H](COS(=O)(=O)O)[C@@H](O[C@H]8O[C@H](COS(=O)(=O)O)[C@@H](OS(=O)(=O)O)[C@H](OS(=O)(=O)O)[C@H]8OS(=O)(=O)O)[C@H](OS(=O)(=O)O)[C@H]7OS(=O)(=O)O)[C@H](OS(=O)(=O)O)[C@H]6OS(=O)(=O)O)[C@H](OS(=O)(=O)O)[C@H]5OS(=O)(=O)O)CC[C@]4(C)[C@H]3CC[C@]12C [PG545],Estimated median duration of SD,[1]; 95% confidence interval from 39 days to 62 days,57 days
same,Disease control rate,"[1]; evaluable subjects (six of sixteen), at 8 weeks",38%
same,Best response,"[1]; human, in vivo",stable disease up to 24 weeks
same,Objective responses,[1]; monotherapy,No objective responses were reported
same,Patients with stable disease (SD) at 8 weeks,"[1]; of sixteen patients assessed, RECIST 1.1",six
same,Exposure (AUC0–168 and Cmax) relative to dose,[2]; 150 mg dose level,sub-proportional
same,Dose proportionality of exposure,[2]; 25-150 mg,proportional up to 100 mg; also recorded: general dose-proportionate exposure up to 100 mg
same,AUC,"[2]; 25 mg, dose number 1, NCA mean",432 µg·h/mL
same,Cmax,"[2]; 25 mg, dose number 1, NCA mean",9600 ng/mL
same,AUC(0-t),"[2]; 25 mg, dose number 1, NCA mean, read-out: AUC0-96",339 µg·h/mL
same,AUC(0-t),"[2]; 25 mg, dose number 1, NCA mean, read-out: AUC0-last",465 µg·h/mL
same,half-life,"[2]; 25 mg, dose number 1, NCA mean, read-out: t1/2 (converted)",149 h
same,AUC,"[2]; 25 mg, dose number 4, NCA mean",841 µg·h/mL
same,Cmax,"[2]; 25 mg, dose number 4, NCA mean",12400 ng/mL
same,AUC(0-t),"[2]; 25 mg, dose number 4, NCA mean, read-out: AUC0-96",589 µg·h/mL
same,AUC(0-t),"[2]; 25 mg, dose number 4, NCA mean, read-out: AUC0-last",611 µg·h/mL
same,half-life,"[2]; 25 mg, dose number 4, NCA mean, read-out: t1/2 (converted)",123 h
same,AUC,"[2]; 50 mg, dose number 1, NCA mean",695 µg·h/mL
same,Cmax,"[2]; 50 mg, dose number 1, NCA mean",15600 ng/mL
same,AUC(0-t),"[2]; 50 mg, dose number 1, NCA mean, read-out: AUC0-96",539 µg·h/mL
same,AUC(0-t),"[2]; 50 mg, dose number 1, NCA mean, read-out: AUC0-last",710 µg·h/mL
same,half-life,"[2]; 50 mg, dose number 1, NCA mean, read-out: t1/2 (converted)",183 h
same,AUC,"[2]; 50 mg, dose number 4, NCA mean",1640 µg·h/mL
same,Cmax,"[2]; 50 mg, dose number 4, NCA mean",21700 ng/mL
same,AUC(0-t),"[2]; 50 mg, dose number 4, NCA mean, read-out: AUC0-96",1120 µg·h/mL
same,AUC(0-t),"[2]; 50 mg, dose number 4, NCA mean, read-out: AUC0-last",1690 µg·h/mL
same,half-life,"[2]; 50 mg, dose number 4, NCA mean, read-out: t1/2 (converted)",228 h
same,AUC,[2]; [5],1210 µg·h/mL
same,Cmax,[2]; [5],29500 ng/mL
same,AUC(0-t),"[2]; 100 mg, dose number 1, NCA mean, read-out: AUC0-96",974 µg·h/mL
same,AUC(0-t),"[2]; 100 mg, dose number 1, NCA mean, read-out: AUC0-last",1210 µg·h/mL
same,half-life,"[2]; 100 mg, dose number 1, NCA mean, read-out: t1/2 (converted)",133 h
same,AUC,[2]; [6],2250 µg·h/mL
same,Cmax,[2]; [6],35600 ng/mL
same,AUC(0-t),"[2]; 100 mg, dose number 4, NCA mean, read-out: AUC0-96",1610 µg·h/mL
same,AUC(0-t),"[2]; 100 mg, dose number 4, NCA mean, read-out: AUC0-last",2380 µg·h/mL
same,half-life,"[2]; 100 mg, dose number 4, NCA mean, read-out: t1/2 (converted)",133 h
same,AUC,[2]; [7],1500 µg·h/mL
same,Cmax,[2]; [7],37100 ng/mL
same,AUC(0-t),"[2]; 150 mg, dose number 1, NCA mean, read-out: AUC0-96",1190 µg·h/mL
same,AUC(0-t),"[2]; 150 mg, dose number 1, NCA mean, read-out: AUC0-last",1440 µg·h/mL
same,half-life,"[2]; 150 mg, dose number 1, NCA mean, read-out: t1/2 (converted)",117 h
same,AUC,[2]; [8],3190 µg·h/mL
same,Cmax,[2]; [8],48600 ng/mL
same,AUC(0-t),"[2]; 150 mg, dose number 4, NCA mean, read-out: AUC0-96",2230 µg·h/mL
same,AUC(0-t),"[2]; 150 mg, dose number 4, NCA mean, read-out: AUC0-last",2780 µg·h/mL
same,half-life,"[2]; 150 mg, dose number 4, NCA mean, read-out: t1/2 (converted)",128 h
same,half-life,"[2]; across all subjects, population PK model, read-out: Mean t1/2 (converted)",141 h
same,Between subject variability of CL,[2]; population PK model,75.6 % CV
same,Between subject variability of Vp,[2]; population PK model,61.2 % CV
same,Apparent central volume (Vc),"[2]; population PK model, IV",2.98 L
same,Apparent clearance (CL),"[2]; population PK model, IV",0.0165 L/h
same,Apparent peripheral volume (Vp),"[2]; population PK model, IV",11.9 L
same,Inhibition of tumour-associated macrophages (TAM),[3],potently inhibit
same,pDC and NK cell activation parameters,pDC and NK cells; 150 mg cohort,unaffected or modestly responsive
same,Subjects with at least two-fold increased numbers of activated pDC or NK cells,"pDC and NK cells; 50 and 100 mg, 2 days after initial dose",six of the ten
same,"Increases in TNFα, IL-6 and IL-8 responses",[4]; 150 mg vs 100 mg cohort averages,strikingly higher at 150 mg
same,"Increase in plasma IFNγ, TNFα, IP-10 (CXCL10) and MCP-1 (CCL2)",[4]; after initial dose,up to 25 fold
